Assays:
TPS26 = molecular target: T1, TPS26 (Arabidopsis thaliana, UniProt Q9C8E3); assay: E. coli coexpression with (E,E)-FPP synthase, GC-MS; assay type: cell-based; settings: trace alpha-humulene and (E)-beta-farnesene formed
T1 construct: N-terminal 38 aa removed; pET28a; RIKEN cDNA clone; expressed in E. coli with prenyl diphosphate synthase
T1 sequence (Q9C8E3 39-598): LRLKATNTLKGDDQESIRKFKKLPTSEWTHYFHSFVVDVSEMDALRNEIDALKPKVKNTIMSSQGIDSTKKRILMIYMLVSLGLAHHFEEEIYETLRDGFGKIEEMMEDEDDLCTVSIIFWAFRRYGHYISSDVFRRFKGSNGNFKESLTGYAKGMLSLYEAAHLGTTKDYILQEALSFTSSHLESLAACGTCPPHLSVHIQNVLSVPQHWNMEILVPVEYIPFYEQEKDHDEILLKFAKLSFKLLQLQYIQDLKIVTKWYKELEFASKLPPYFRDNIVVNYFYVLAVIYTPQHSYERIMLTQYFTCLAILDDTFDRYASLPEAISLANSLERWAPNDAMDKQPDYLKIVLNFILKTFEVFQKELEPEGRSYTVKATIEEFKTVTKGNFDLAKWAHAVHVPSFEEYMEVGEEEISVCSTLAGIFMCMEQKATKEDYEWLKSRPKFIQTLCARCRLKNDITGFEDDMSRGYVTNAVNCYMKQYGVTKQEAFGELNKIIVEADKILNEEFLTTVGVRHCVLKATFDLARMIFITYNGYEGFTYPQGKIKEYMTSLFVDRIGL

TPS9 [1] = molecular target: T2, TPS9 (Arabidopsis thaliana, UniProt Q8L7G4); assay: as above; assay type: cell-based; settings: trace nerolidol and (E)-beta-farnesene formed
T2 construct: gene TPS09; pET Duet; no truncation stated; RIKEN full-length cDNA clone; expressed in E. coli with prenyl diphosphate synthase
T2 sequence (Q8L7G4 1-607): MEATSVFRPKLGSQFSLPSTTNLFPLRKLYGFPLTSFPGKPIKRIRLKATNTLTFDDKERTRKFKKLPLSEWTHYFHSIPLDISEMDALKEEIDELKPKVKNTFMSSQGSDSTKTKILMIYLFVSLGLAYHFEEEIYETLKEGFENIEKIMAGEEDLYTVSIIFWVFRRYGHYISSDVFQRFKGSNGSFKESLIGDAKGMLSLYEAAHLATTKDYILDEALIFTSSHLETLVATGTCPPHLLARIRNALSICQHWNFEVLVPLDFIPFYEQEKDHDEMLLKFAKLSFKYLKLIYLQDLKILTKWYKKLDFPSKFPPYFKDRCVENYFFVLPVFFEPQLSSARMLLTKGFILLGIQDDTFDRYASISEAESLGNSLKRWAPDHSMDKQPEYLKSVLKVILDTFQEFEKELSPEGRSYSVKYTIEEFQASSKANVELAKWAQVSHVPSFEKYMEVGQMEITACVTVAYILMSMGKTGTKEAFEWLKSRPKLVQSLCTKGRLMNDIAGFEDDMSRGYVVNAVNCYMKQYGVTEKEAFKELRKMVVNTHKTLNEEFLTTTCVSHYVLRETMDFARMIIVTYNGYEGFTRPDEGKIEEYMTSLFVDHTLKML

TPS25 = molecular target: T3, TPS25 (Arabidopsis thaliana, UniProt Q9LIA1); assay: in vitro assay, SPME-GC-MS; assay type: biochemical; settings: main product (E)-beta-farnesene
T3 construct: N-terminal 25 aa (transit peptide) removed; TOPO-pET102; E. coli; partially purified
T3 sequence (Q9LIA1 26-603): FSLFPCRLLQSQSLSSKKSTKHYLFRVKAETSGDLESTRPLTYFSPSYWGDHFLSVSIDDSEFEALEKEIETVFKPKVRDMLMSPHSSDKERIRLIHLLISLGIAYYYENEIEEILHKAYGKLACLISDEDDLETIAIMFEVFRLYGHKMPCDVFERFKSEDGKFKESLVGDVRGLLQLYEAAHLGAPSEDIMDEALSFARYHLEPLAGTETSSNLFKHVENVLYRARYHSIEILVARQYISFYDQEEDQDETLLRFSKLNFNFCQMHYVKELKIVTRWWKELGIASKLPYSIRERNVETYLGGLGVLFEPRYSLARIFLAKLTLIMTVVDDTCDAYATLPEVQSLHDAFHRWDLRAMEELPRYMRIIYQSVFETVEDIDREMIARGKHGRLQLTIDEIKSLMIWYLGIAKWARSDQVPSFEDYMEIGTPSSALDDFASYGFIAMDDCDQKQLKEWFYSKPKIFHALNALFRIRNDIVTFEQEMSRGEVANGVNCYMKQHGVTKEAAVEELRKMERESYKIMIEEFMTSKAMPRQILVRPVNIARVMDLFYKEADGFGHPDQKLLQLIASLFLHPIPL

TPS22 = molecular target: T4, TPS22 (Arabidopsis thaliana, UniProt Q9LQ27); assay: in vitro assay, SPME-GC-MS; assay type: biochemical; settings: main product (E)-beta-farnesene
T4 construct: N-terminal 41 aa (transit peptide) removed; TOPO-pET102; E. coli; partially purified
T4 sequence (Q9LQ27 42-603): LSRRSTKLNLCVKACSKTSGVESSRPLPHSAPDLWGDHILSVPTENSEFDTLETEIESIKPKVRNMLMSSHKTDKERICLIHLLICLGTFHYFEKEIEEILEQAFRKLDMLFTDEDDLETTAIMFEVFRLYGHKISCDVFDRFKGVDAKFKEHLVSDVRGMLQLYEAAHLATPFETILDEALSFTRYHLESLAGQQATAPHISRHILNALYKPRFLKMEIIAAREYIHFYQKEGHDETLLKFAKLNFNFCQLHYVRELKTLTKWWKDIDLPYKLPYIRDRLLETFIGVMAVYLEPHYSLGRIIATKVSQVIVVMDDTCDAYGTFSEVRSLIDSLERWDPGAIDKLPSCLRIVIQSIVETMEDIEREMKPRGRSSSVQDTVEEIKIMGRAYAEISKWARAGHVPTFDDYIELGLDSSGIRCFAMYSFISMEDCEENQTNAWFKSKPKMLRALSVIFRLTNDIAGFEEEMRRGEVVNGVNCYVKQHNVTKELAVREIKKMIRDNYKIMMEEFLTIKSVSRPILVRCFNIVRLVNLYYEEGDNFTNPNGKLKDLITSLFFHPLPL

TPS6c = molecular target: T5, TPS6c (Arabidopsis thaliana, UniProt Q84UU9); assay: E. coli coexpression with GGPP synthase, GC-MS; assay type: cell-based; settings: product (3E,7E)-dolabella-3,7-dien-18-ol and an unknown diterpene
T5 construct: gene TPS06; N-terminal 53 aa removed; pET28a; expressed in E. coli with GGPP synthase
T5 sequence (Q84UU9 54-611): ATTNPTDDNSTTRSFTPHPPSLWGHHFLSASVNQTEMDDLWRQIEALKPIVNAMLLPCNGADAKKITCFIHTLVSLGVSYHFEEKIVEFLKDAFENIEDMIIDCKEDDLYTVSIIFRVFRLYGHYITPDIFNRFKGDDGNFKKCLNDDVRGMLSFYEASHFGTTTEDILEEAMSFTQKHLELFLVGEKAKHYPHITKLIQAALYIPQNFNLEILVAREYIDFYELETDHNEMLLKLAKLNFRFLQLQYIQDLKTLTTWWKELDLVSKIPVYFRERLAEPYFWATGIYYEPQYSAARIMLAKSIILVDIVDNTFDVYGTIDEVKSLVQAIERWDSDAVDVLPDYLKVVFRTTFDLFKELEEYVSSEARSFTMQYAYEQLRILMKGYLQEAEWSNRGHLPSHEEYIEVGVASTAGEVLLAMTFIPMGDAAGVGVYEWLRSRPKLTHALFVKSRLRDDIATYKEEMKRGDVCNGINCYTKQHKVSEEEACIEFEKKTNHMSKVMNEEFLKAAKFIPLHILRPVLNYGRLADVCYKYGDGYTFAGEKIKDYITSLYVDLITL

TPS30 = molecular target: T6, TPS30 (Arabidopsis thaliana, UniProt Q9LH31); assay: E. coli coexpression with GGPP synthase, GC-MS; assay type: cell-based; settings: two unknown diterpenes formed
T6 construct: N-terminal 48 aa removed; pET28a; expressed in E. coli with prenyl diphosphate synthase
T6 sequence (Q9LH31 49-604): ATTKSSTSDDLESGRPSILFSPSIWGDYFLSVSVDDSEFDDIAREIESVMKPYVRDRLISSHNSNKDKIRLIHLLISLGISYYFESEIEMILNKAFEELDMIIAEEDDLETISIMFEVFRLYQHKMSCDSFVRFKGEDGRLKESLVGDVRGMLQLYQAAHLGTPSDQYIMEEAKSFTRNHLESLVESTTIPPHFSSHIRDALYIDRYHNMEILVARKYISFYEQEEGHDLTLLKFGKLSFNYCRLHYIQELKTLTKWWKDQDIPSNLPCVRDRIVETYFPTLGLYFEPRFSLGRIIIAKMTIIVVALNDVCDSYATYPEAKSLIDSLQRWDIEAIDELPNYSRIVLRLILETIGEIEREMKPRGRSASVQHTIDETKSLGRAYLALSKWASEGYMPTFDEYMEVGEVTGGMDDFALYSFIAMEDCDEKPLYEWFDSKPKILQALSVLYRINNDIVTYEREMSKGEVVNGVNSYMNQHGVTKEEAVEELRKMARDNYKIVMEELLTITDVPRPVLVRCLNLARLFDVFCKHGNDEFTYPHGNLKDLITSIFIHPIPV

TPS20c = molecular target: T7, TPS20c (Arabidopsis thaliana, UniProt Q9FI27); assay: radiochemical terpene synthase assay; assay type: biochemical; settings: labelled compound ([1-3H]-GGPP); six concentrations, triplicate
T7 construct: gene TPS20; first 53 aa (plastid transit peptide) removed; N-terminal His-tag (pET28a NdeI/XhoI); E. coli; partially purified
T7 sequence (Q9FI27 54-575): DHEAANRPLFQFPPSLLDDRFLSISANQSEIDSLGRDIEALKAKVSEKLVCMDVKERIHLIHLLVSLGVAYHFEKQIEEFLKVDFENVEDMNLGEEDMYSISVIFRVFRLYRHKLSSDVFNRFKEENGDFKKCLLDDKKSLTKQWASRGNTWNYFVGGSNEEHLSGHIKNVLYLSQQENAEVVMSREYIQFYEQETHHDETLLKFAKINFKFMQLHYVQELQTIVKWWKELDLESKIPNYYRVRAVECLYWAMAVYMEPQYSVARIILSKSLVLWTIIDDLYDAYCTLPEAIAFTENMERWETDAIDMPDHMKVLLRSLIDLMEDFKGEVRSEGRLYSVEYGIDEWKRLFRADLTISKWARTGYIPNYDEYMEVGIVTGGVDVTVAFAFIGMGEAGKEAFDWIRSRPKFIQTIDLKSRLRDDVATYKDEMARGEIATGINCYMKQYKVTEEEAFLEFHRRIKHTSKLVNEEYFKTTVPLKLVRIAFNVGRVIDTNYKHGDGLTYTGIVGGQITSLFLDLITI
From the text: radiochemical terpene synthase assay on TPS20c

TPS9 [2] = molecular target: T2, TPS9; assay: E. coli coexpression with GGPP synthase, GC-MS; assay type: cell-based; settings: unidentified diterpene olefins formed

Structure (SMILES) | E. coli coexpression with (E,E)-FPP synthase, GC-MS (TPS26) | E. coli coexpression with (E,E)-FPP synthase, GC-MS (TPS9 [1]) | in vitro assay, SPME-GC-MS (TPS25) | in vitro assay, SPME-GC-MS (TPS22) | E. coli coexpression with GGPP synthase, GC-MS (TPS6c) | E. coli coexpression with GGPP synthase, GC-MS (TPS30) | Km (TPS20c) | E. coli coexpression with GGPP synthase, GC-MS (TPS9 [2])
CC(C)=CCC/C(C)=C/CC/C(C)=C/COP(=O)(O)OP(=O)(O)O [(E,E)-FPP] | trace amounts of α-humulene and (E)-β-farnesene being produced by TPS26 | When co-expressed with (E,E)-FPP synthase, TPS9 produced trace amounts of nerolidol and (E)-β-farnesene | both proteins converted (E,E)-FPP into sesquiterpenes in vitro with (E)-β-farnesene as the main compound | both proteins converted (E,E)-FPP into sesquiterpenes in vitro with (E)-β-farnesene as the main compound | – | – | – | –
CC(C)=CCC/C(C)=C/CC/C(C)=C/CC/C(C)=C/COP(=O)(O)OP(=O)(O)O [GGPP] | – | – | – | – | TPS6c reacts with GGPP to produce dolabelladienol and an unknown diterpene | protein encoded by gene TPS30 reacted with GGPP to form two unknown diterpenes | 6.29 ± 0.24 µM | TPS9 converted GGPP to one predominant diterpene olefin and eight minor diterpene products

— PMC5122590, “Identification of a Dolabellane Type Diterpene Synthase and other Root-Expressed Diterpene Synthases in Arabidopsis” (Frontiers in Plant Science, 2016)
